The text below walks through data of PMC12096346, “Disposable Face Masks for Noninvasive Drug Detection: A Proof-of-Concept Study with Cough Syrup Constituents” (Analytical Chemistry, 2025).

Structures are written as SMILES. Where two headings read alike, the source gives them in different places.

One data set can be described thus: clinical. The following applies: both, human, in vivo, po.
The conditions of data set [1]: PubChem, cited from earlier work.
For data set [2] the following is noted: both, human, in vivo, po.
The conditions of data set [3]: reported in the literature, ref numbers not given; cited from earlier work.
A short description of data set [4]: Comparative urine analysis after ingesting cough syrup (LC-MS/MS, creatinine-normalized). It is filed as in vivo, humans. The following applies: 15 mL cough syrup oral; for k el / MRT / Tmax / half-life: human, in vivo; for MRT: reciprocal of kel; for Tmax: seven volunteers; for half-life: time from Cmax to half of Cmax.
Procedure: Before analysis, the urine samples were thawed at room temperature and centrifuged at 6,000g to remove coarse material. Subsequently, 1 mL of the supernatant was combined with 10 μL of the internal standard mixture (containing 10 ng/mL Cod-d 6 and Clp-d 6) and loaded onto C18 solid-phase extraction (SPE) columns for sample cleanup, following previously established protocols. The SPE eluate was then dried under a nitrogen stream and redissolved in 100 μL of methanol before analysis using the same LC–MS/MS method described earlier for mask sample analysis. In a separate LC–MS/MS analysis, urinary creatinine concentration was determined using creatinine-d 3 as an internal standard, as reported previously.
Grubb’s test was conducted to identify outliers. The biological half-life (t 1/2) of individual drugs was calculated as the time for their concentration in exhaled breath or urine to decrease from its maximum (C max) to half of C max. The elimination rate constant (k el) and mean residence time (MRT) of each drug were determined from the slope of the elimination phase of the exhaled breath or urine concentration curve plotted on a semilogarithmic scale and by taking the reciprocal of the elimination rate constant, respectively.
Data set [5] in a line: Drug clearance study by breathing through face masks (exhaled breath, LC-MS/MS). The following applies: for MRT / Tmax / half-life / k el: both, human, in vivo, po, 15 mL.
The mark [6] stands for this setting: exhaled breath, 15 mL cough syrup oral.

`CN(C)CCC(c1ccc(Cl)cc1)c1ccccn1` (stereo not shown) [Chlorpheniramine]: in “clinical”, the MRT was 34.2 ± 4.6 h, the Tmax worked out at 13.1 ± 5 h and the k el is 8.33e-06 s⁻¹. Besides, in data set [1], the pKa is on record as 9.5^36. Moreover, the pKa in data set [1] (listed as Clp) was approximately 9.5.

On to `COc1ccccc1OCC(O)CO` (stereo not shown) [Guaifenesin], for which, in the data set “clinical”, the MRT worked out at 4.8 ± 4.2 h, the Tmax worked out at 0.9 ± 0.2 h, the half-life was 2.1 ± 0.9 h and the k el is 0.000111 s⁻¹. The same compound returned a detection window in data set [2] of 65.1 ± 18.1 h. Further, the “plasma t1/2” value in data set [3] is reported as approximately 1 h.

With `CN[C@@H](C)[C@H](O)c1ccccc1` [Ephedrine], in data set [4], the detection window amounted to 79.9 ± 11.4 h, the k el was 2.78e-05 s⁻¹, the MRT stood at 10.4 ± 3.3 h and the Tmax worked out at 2.7 ± 1.8 h. In data set [4], this compound gave a half-life of 6.2 ± 0.6 h. Further, in data set [3], the “plasma t1/2” value is listed as “approximately 6 h”. Besides, in data set [5], the MRT is 14.5 ± 4.1 h, the Tmax amounted to 6.9 ± 1.1 h, the half-life was 10 ± 2.8 h and the k el was 2.78e-05 s⁻¹. Moreover, in data set [5] (setting [6]), the “Cmax in exhaled breath” value turned out to be 10.8 ± 1.6 ng/m^3 and the detection window was 92.6 ± 9.1 h.

For `COc1ccc2c3c1O[C@H]1[C@@H](O)C=C[C@H]4[C@@H](C2)N(C)CC[C@@]341` [Codeine], in data set [4], the detection window came to 68.2 ± 8.3 h, the k el is 8.33e-05 s⁻¹, the MRT came to 4.6 ± 2.1 h and the time of peak concentration (Tmax) amounted to 2.1 ± 1.3 h. This compound had a half-life in data set [4] of 3.3 ± 0.7 h. Besides, in data set [3], the “plasma t1/2” value was 2 to 3 h. Moreover, in data set [5], the MRT is 3.9 ± 0.8 h, the Tmax amounted to 1.9 ± 1 h, the half-life is 2.9 ± 0.8 h and the k el is 8.33e-05 s⁻¹. The compound further had a detection window in data set [5] (setting [6]) of 61.3 ± 12.7 h.

What is called MRT is the average time that molecules of a dose stay in the body. The Tmax is the time from dosing to the highest level. As a reminder, the pKa is the negative logarithm of the acid dissociation constant. In general, half-life refers to the time in which the quantity being followed falls by half. Read a high half-life as slow loss.
